Source: patent US12559474B2, “Triazine derivatives having virus replication inhibitory activity and pharmaceutical composition comprising the same” (priority 2021, dated 2026)
Like-named read-outs stand apart in the source and are kept apart here.

What was measured:
[1] = test system: SARS-CoV-2; experiment: microbe, parasite or virus in culture; format: cell-based; settings: Severe acute respiratory syndrome coronavirus 2, VeroE6/TMPRSS2, 72 h, 50% SARS-CoV-2 infected cell death inhibitory concentration, VeroE6/TMPRSS2 cells, 3 days culture
[2] = target: SARS-CoV-2 3CL protease (Severe acute respiratory syndrome coronavirus 2, UniProt P0DTD1); experiment: biochemical; settings: 50% SARS-CoV-2 3CL protease inhibitory concentration, read-out: IC50

SMILES | EC50 ([1]; CellTiter-Glo 2.0) | EC50 ([1]; class symbols) | IC50 ([2]; given as class symbols) | IC50 ([2]; RapidFire MS)
CC(=O)Nc1nc2cc(Cl)c(Nc3nc(=O)n(Cc4ccc[nH]c4=O)c(=O)n3Cc3cc(F)c(F)c(F)c3)cc2s1 [Compound I-0465] | 3.27 µM | 1 to 10 µM | < 0.1 µM | 0.0042 µM
Cc1cncc(-n2c(=O)nc(Nc3cc4cn(C)nc4cc3Cl)n(Cc3cc(C#N)c(F)cc3OCC(C)C)c2=O)c1 [II-0071] | – | < 1 µM | < 0.1 µM | –
Cc1cncc(-n2c(=O)nc(Nc3cc4cn(C)nc4cc3Cl)n(Cc3cc(F)c(F)cc3CCC(C)(C)O)c2=O)c1 [II-0073] | – | 1 to 10 µM | < 0.1 µM | –
Cn1cnc(Cn2c(=O)nc(Nc3cc4cn(C)nc4cc3Cl)n(Cc3cc(F)c(F)c(C#N)c3)c2=O)n1 [II-0184] | – | 1 to 10 µM | < 0.1 µM | –
Cc1cncc(-n2c(=O)nc(Nc3cc4cn(CC(F)F)nc4cc3F)n(Cc3cc(F)c(F)c(F)c3)c2=O)c1 [II-0518] | – | 1 to 10 µM | < 0.1 µM | –
CCc1cncc(-n2c(=O)nc(Nc3ccc4nn(C)cc4c3)n(Cc3ccc(F)c(C#N)c3)c2=O)c1 [II-0390] | – | 1 to 10 µM | < 0.1 µM | –
CC1c2ccccc2CN1c1nc(=O)n(Cc2ccc[nH]c2=O)c(=O)n1Cc1cc(F)c(F)c(F)c1 (centres unmarked) [II-0213] | – | 1 to 10 µM | < 0.1 µM | –
Cc1cncc(-n2c(=O)nc(Nc3cc4c(cc3C)OCC4)n(Cc3ccc(F)c(C#N)c3)c2=O)c1 [II-0172] | – | < 1 µM | < 0.1 µM | –
N#Cc1cc(F)cc(Cn2c(Nc3cc4c(cc3Cl)OCC4)nc(=O)n(Cc3ccc[nH]c3=O)c2=O)c1 [II-0029] | – | 1 to 10 µM | < 0.1 µM | –
CCn1cc2cc(Nc3nc(=O)n(-c4cncc(C)c4)c(=O)n3Cc3ccc(F)c(C#N)c3)ccc2n1 [II-0010] | 0.94 µM | – | – | 0.019 µM
Cc1cncc(-n2c(=O)nc(Nc3ccc4nn(C)cc4c3)n(Cc3ccc(F)c(C#N)c3)c2=O)c1 [II-0173] | 0.272 µM | – | – | 0.015 µM
Cc1cncc(-n2c(=O)nc(Nc3cc4cn(C)nc4cc3Cl)n(Cc3cc(Cl)c(F)cc3F)c2=O)c1 [II-0377] | 0.049 µM | – | – | 0.003 µM
Cc1cncc(-n2c(=O)nc(Nc3cc4cn(C)nc4cc3Cl)n(Cc3cc(F)ccc3F)c2=O)c1 [II-0199] | – | < 1 µM | < 0.1 µM | –
Cc1cncc(-n2c(=O)nc(Nc3cc4cn(C)nc4cc3Cl)n(Cc3cc(C#N)c(F)cc3CF)c2=O)c1 [II-0581] | – | < 1 µM | < 0.1 µM | –
COc1ccc(Nc2nc(=O)n(Cc3cc4c([nH]c3=O)CCC4)c(=O)n2Cc2cc(F)c(F)c(F)c2)cc1 [II-0343] | 4.14 µM | – | – | 0.31 µM
N#Cc1cc(Cn2c(Nc3ccc4c(c3)CCCO4)nc(=O)n(-c3cncc4ccccc34)c2=O)ccc1F [II-0159] | – | < 1 µM | < 0.1 µM | –
Cc1cncc(-n2c(=O)nc(Nc3cc4cn(C)nc4cc3Cl)n(Cc3cc(Cl)ccc3F)c2=O)c1 [II-0362] | – | < 1 µM | < 0.1 µM | –
N#Cc1cc(Cn2c(Nc3cc4cn(C(F)F)nc4cc3Cl)nc(=O)n(-c3cncc4ccccc34)c2=O)ccc1F [Compound I-0428] | – | < 1 µM | < 0.1 µM | –
Cc1cncc(-n2c(=O)nc(Nc3cnc(OCC(F)F)cc3C)n(Cc3ccc(F)c(C#N)c3)c2=O)c1 [II-0123] | – | 1 to 10 µM | < 0.1 µM | –

SMILES | EC50 ([1]; CellTiter-Glo 2.0) | EC50 ([1]; class symbols) | IC50 ([2]; given as class symbols) | IC50 ([2]; RapidFire MS)
O=c1[nH]cccc1Cn1c(=O)nc(Nc2cc3c(cc2Cl)OCC3)n(Cc2cc(F)c(F)cc2F)c1=O [Compound I-0016] | – | < 1 µM | < 0.1 µM | –
O=c1[nH]cccc1Cn1c(=O)nc(Nc2cc3c(cc2Cl)nc2n3CCOC2)n(Cc2cc(F)c(F)c(F)c2)c1=O [Compound I-0457] | 5.3 µM | – | – | 0.0072 µM
Cn1cc2cc(Nc3nc(=O)n(Cc4cc5cccnc5[nH]c4=O)c(=O)n3Cc3cc(F)c(F)c(F)c3)c(Cl)cc2n1 [Compound I-0236] | – | < 1 µM | < 0.1 µM | –
Cc1cncc(-n2c(=O)nc(Nc3ccc4nn(CC(F)F)cc4c3)n(Cc3cc(F)c(F)c(C#N)c3)c2=O)c1 [II-0055] | 0.18 µM | – | – | 0.0045 µM
Cn1cc2cc(Nc3nc(=O)n(Cc4cc5ccsc5[nH]c4=O)c(=O)n3Cc3cc(F)c(F)c(F)c3)c(Cl)cc2n1 [Compound I-0110] | 0.321 µM | – | – | 0.0042 µM
O=c1[nH]cccc1Cn1c(=O)nc(Nc2ccc(OCC(F)F)cc2Cl)n(Cc2cc(F)c(F)c(F)c2)c1=O [Compound I-0095] | – | 1 to 10 µM | < 0.1 µM | –
CNc1nc2ccc(Nc3nc(=O)n(-c4cncc(C)c4)c(=O)n3Cc3cc(C#N)ccc3Cl)cc2s1 [II-0497] | – | < 1 µM | < 0.1 µM | –
CCn1cc2cc(Nc3nc(=O)n(-c4cncc(Cl)c4)c(=O)n3Cc3cc(C#N)ccc3Cl)ccc2n1 [II-0036] | 0.355 µM | – | – | 0.0083 µM
Cc1cncc(-n2c(=O)nc(Nc3cc4cn(CC(F)F)nc4cc3F)n(Cc3cc(F)c(F)c(C#N)c3)c2=O)c1 [II-0506] | – | < 1 µM | < 0.1 µM | –
Cc1cncc(-n2c(=O)nc(Nc3cc4cn(C)nc4cc3Cl)n(Cc3cccc(F)c3Cl)c2=O)c1 [II-0188] | – | < 1 µM | < 0.1 µM | –
CC(C)(O)Cn1cc2cc(Nc3nc(=O)n(Cc4ncccn4)c(=O)n3Cc3cc(F)c(F)c(Cl)c3)c(Cl)cc2n1 [II-0241] | 1.39 µM | – | – | 0.024 µM
Cn1cnc(Cn2c(=O)nc(Nc3cc4cn(CC5CC5)nc4cc3Cl)n(Cc3cc(F)c(F)cc3F)c2=O)n1 [II-0352] | – | < 1 µM | < 0.1 µM | –
O=c1nc(Nc2cc3c(cc2Cl)OCC3)n(Cc2cc(F)c(F)c(F)c2)c(=O)n1-c1cncc2ccccc12 [II-0049] | – | < 1 µM | < 0.1 µM | –
O=c1nc(Nc2cc3c(cc2Cl)nc2n3CCN2)n(Cc2cc(Cl)c(F)cc2F)c(=O)n1-c1cncc(Cl)c1 [II-0349] | – | 1 to 10 µM | < 0.1 µM | –
Cn1cnc(Cn2c(=O)nc(Nc3cc4oc(N)nc4cc3Cl)n(Cc3cc(F)c(F)c(Cl)c3)c2=O)n1 [II-0508] | – | 1 to 10 µM | < 0.1 µM | –
Cc1nc2cc(Br)c(Nc3nc(=O)n(Cc4ncn(C)n4)c(=O)n3Cc3cc(F)c(F)cc3F)cc2s1 [II-0417] | – | 1 to 10 µM | < 0.1 µM | –
COC(=O)COc1ccc(Nc2nc(=O)n(Cc3ccc[nH]c3=O)c(=O)n2Cc2cc(F)c(F)c(F)c2)c(Cl)c1 [Compound I-0462] | – | 1 to 10 µM | < 0.1 µM | –
Cn1cnc(Cn2c(=O)nc(Nc3cc4sc(NCC5CC5)nc4cc3Cl)n(Cc3cc(F)c(F)cc3F)c2=O)n1 [II-0082] | – | 1 to 10 µM | < 0.1 µM | –
COc1ccc(Nc2nc(=O)n(Cc3cc(-c4ncco4)c[nH]c3=O)c(=O)n2Cc2cc(F)c(F)c(F)c2)cc1 [Compound I-0260] | – | 1 to 10 µM | < 0.1 µM | –

SMILES | EC50 ([1]; CellTiter-Glo 2.0) | EC50 ([1]; class symbols) | IC50 ([2]; given as class symbols) | IC50 ([2]; RapidFire MS)
Cn1cc2cc(Nc3nc(=O)n(-c4cncc5ccccc45)c(=O)n3Cc3ccc(F)c(C#N)c3)c(Cl)cc2n1 [Compound I-0379] | – | < 1 µM | < 0.1 µM | –
Cc1nc(Cn2cc3cc(Nc4nc(=O)n(Cc5ccc[nH]c5=O)c(=O)n4Cc4cc(F)c(F)c(F)c4)c(Cl)cc3n2)no1 [II-0344] | – | 1 to 10 µM | < 0.1 µM | –
CNc1nc2cc(F)c(Nc3nc(=O)n(Cc4ncn(C)n4)c(=O)n3Cc3cc(F)c(F)cc3F)cc2s1 [II-0400] | – | 1 to 10 µM | < 0.1 µM | –
COc1ccc(Nc2nc(=O)n(-c3cncc(C)c3)c(=O)n2Cc2cc(F)c(F)c(F)c2)cc1 [Compound I-0374] | – | 1 to 10 µM | < 0.1 µM | –
Cc1cncc(-n2c(=O)nc(Nc3cc4c(cc3C)OCC4)n(Cc3cc(F)c(F)c(F)c3)c2=O)c1 [II-0219] | – | 1 to 10 µM | < 0.1 µM | –
COc1ccc(Nc2nc(=O)n(-c3cncc4ccccc34)c(=O)n2Cc2ccc(F)c(C#N)c2)c(F)c1 [II-0178] | – | < 1 µM | < 0.1 µM | –
Cn1cc2cc(Nc3nc(=O)n(-c4cncc(Cl)c4)c(=O)n3Cc3ccc(F)c(C#N)c3)c(F)cc2n1 [II-0525] | 0.533 µM | – | – | 0.016 µM
Cc1cncc(-n2c(=O)nc(Nc3cc4cn(C)nc4cc3Cl)n(Cc3cc(Cl)c(F)cc3C)c2=O)c1 [II-0043] | 0.232 µM | – | – | 0.0058 µM
Cn1cc2cc(Nc3nc(=O)n(-c4cncc(C#N)c4)c(=O)n3Cc3cc(F)c(F)c(Cl)c3)c(Cl)cc2n1 [II-0489] | – | 1 to 10 µM | < 0.1 µM | –
Cn1cnc(Cn2c(=O)nc(Nc3cc4cn(C5CCOCC5)nc4cc3Cl)n(Cc3cc(F)c(F)cc3F)c2=O)n1 [II-0102] | – | 1 to 10 µM | < 0.1 µM | –
Cc1cncc(-n2c(=O)nc(Nc3ccc4nn(CC(F)F)cc4c3)n(Cc3cc(C#N)c(F)cc3C)c2=O)c1 [II-0278] | 0.17 µM | – | – | 0.0031 µM
Cc1cncc(-n2c(=O)nc(Nc3cc4cn(C)nc4cc3Cl)n(Cc3cc(C#N)ccc3Cc3cccc(Cl)c3)c2=O)c1 [II-0181] | – | < 1 µM | < 0.1 µM | –
Cc1cncc(-n2c(=O)nc(Nc3cc4sc(C)nc4cc3Cl)n(Cc3ccc(F)c(C#N)c3)c2=O)c1 [II-0193] | – | 1 to 10 µM | < 0.1 µM | –
O=c1nc(Nc2cc3cn(CCN4CCOCC4)nc3cc2Cl)n(Cc2cc(F)c(F)cc2F)c(=O)n1-c1cncc2ccccc12 [II-0078] | – | < 1 µM | < 0.1 µM | –
CNc1nc2ccc(Nc3nc(=O)n(-c4cncc(Cl)c4)c(=O)n3Cc3cc(C#N)c(F)cc3C)cc2s1 [II-0396] | – | < 1 µM | < 0.1 µM | –
Cn1cc2cc(Nc3nc(=O)n(Cc4ncccn4)c(=O)n3Cc3cc(F)c(F)c(Cl)c3)c(Cl)cc2n1 [II-0296] | – | < 1 µM | < 0.1 µM | –
Cn1cnc(Cn2c(=O)nc(Nc3cc4cn(C)nc4cc3Cl)n(Cc3cc(F)cc(F)c3F)c2=O)n1 [II-0189] | – | 1 to 10 µM | < 0.1 µM | –
CNc1nc2cc(F)c(Nc3nc(=O)n(-c4cncc(C)c4)c(=O)n3Cc3cc(F)c(F)cc3F)cc2s1 [II-0501] | – | < 1 µM | < 0.1 µM | –
COc1ccc(Nc2nc(=O)n(-c3nncc4cnn(C)c34)c(=O)n2Cc2cc(F)c(F)c(F)c2)cc1 [II-0401] | 2.33 µM | – | – | 0.29 µM
